In PMC10145651, “Modulation of the 5-Lipoxygenase Pathway by Chalcogen-Containing Inhibitors of Leukotriene A4 Hydrolase” (International Journal of Molecular Sciences, 2023):
Values joined by “and” are separate entries in the source; they are usually repeats but may differ in a detail not shown here. Identical values can stand only once.

Legend:
5-LOX [1] = target: T1, 5-LOX (Homo sapiens, UniProt P09917); experiment: Inhibition assay with recombinant 5-LOX; format: biochemical; set-up: made in house; host or cells: Escherichia coli BL21; conditions: 20 µM AA, 2 mM CaCl2
T1 sequence (P09917 1-674): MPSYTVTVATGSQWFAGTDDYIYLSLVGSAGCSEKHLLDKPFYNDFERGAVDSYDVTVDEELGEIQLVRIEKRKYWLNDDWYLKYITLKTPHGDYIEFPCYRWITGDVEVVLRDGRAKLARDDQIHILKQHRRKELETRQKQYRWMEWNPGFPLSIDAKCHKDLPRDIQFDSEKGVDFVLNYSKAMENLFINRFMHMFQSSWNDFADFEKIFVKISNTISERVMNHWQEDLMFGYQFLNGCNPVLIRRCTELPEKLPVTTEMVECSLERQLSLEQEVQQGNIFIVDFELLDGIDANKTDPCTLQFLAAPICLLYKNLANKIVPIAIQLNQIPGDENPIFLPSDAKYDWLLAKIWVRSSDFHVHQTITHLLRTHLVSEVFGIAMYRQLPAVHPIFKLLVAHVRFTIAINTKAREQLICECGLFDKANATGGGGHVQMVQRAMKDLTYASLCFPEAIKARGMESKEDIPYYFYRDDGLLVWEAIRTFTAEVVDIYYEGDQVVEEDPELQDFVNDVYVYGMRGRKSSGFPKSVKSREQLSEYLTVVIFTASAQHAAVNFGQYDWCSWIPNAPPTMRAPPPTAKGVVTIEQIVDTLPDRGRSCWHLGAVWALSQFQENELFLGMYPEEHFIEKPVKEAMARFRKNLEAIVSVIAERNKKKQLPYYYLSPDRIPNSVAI
Protocol: Escherichia coli BL21 cells were transformed with the pT3-5-LO vector and human recombinant 5-LOX was expressed overnight at 30 °C as previously described. […] The supernatant was loaded on an ATP-agarose column and washed with 50 mM phosphate buffer (PB) containing 1 mM EDTA. Protein fractions were eluted with PB supplemented with 1 mM EDTA and 20 mM ATP. Aliquots of semi-purified 5-LOX were diluted with PBS containing 1 mM EDTA and used immediately in incubations.
Aliquots of 5-LOX (0.5 μg) were pre-incubated with test compounds or a vehicle (0.1%, v/v) for 10 min at 4 °C. […] The reaction was stopped after 10 min by addition of 1 vol of ice-cold methanol. Formed metabolites, i.e., LTB4, trans- and epi-trans-LTB4, and 5S-HETE, were analyzed with reverse-phase HPLC using a C18 RP Radial PAK column (Waters) as described previously.

5-LOX [2] = target: T1, 5-LOX; experiment: 5-LOX product formation from intact PMNs: 5S-HETE (cellular activity of 5-LOX); format: cell-based; set-up: stimulated intact polymorphonuclear neutrophils (PMNs); endogenous in cells; host or cells: human primary polymorphonuclear neutrophils (PMNs) from peripheral blood; conditions: for inhibitory effect on the 5-LOX activity (5S-HETE) in PMNs with exogenous AA: 0.5 µM inhibitor, 0–20 µM AA
Protocol: Human primary leukocytes were isolated from peripheral blood of healthy adult volunteers provided by the Institute of Transfusion Medicine at the University Hospital Greifswald as described before. All methods were performed in accordance with the Declaration of Helsinki. In brief, erythrocytes were removed by dextran sedimentation and leukocytes were separated by the density gradient centrifugation on a lymphocyte separation medium (Histopaque®-1077, Merck, Darmstadt, Germany). The remaining erythrocytes were removed by hypotonic lysis using water, and resulting polymorphonuclear neutrophils (PMNs) were resuspended in PBS containing 0.1% (w/v) glucose (PG buffer) or PG buffer with 1 mM CaCl2 (PGC buffer) as indicated. Resulting peripheral blood mononuclear cells (PBMC), including monocytes, were seeded in the RPMI 1640 medium supplemented with 10% (v/v) FCS, 100 U/mL penicillin, 100 µg/mL streptomycin and 2 mM L-glutamine in cell culture flasks (Greiner Bio-one, Frickenhausen, Germany) for 1.5 h at 37 °C and 5% CO2. Adherent monocytes were washed twice with PBS and were finally resuspended in the RPMI 1640 medium as described before.
PMNs (5 × 10^6 cells/mL) were diluted in PGC buffer and pre-incubated with the vehicle (0.1%; v/v) or compounds for 10 min at 37 °C prior to the stimulation with 2.5 µM A23187. After 10 min at 37 °C, treatments were stopped on ice with an equal volume of ice-cold methanol. Next, 530 µL acidified PBS containing 200 ng PGB1 as an internal standard were added to the sample followed by the solid phase extraction with on a RP18 column. […] Formed 5-LOX metabolites were analyzed as described previously.

[3] = read-out: IC50 with recombinant human 5-LOX
[4] = A23187-activated intact PMNs, 5S-HETE formation, read-out: IC50 on the 5-LOX activity (5S-HETE) in PMNs

Row | Compound | IC50 (5-LOX [1]; [3]) | IC50 (5-LOX [2]; [4]) [µM] | inhibitory effect on the 5-LOX activity (5S-HETE) in PMNs with exogenous AA (5-LOX [2]) | IC50 (5-LOX [1]; IC50 with recombinant human 5-LOX) | IC50 (5-LOX [2]) [µM]
1 | Nc1nc(-c2ccc(Cc3ccccc3)cc2)cs1 [ARM1, 4-(4-benzylphenyl) thiazol-2-amine, reference compound] | 6.7 µM and ~6 µM | 1.7 |  |  | 
2 | Nc1nc(-c2ccc(Cc3ccccc3)cc2)co1 [TTO, 4-(4-benzylphenyl) oxazol-2-amine] | 33.6 µM and > 30 µM | 2.3 | did not have any inhibitory effects |  | 
3 | Nc1nc(-c2ccc(Cc3ccccc3)cc2)c[se]1 [TTSe, 4-(4-benzylphenyl) selenazol-2-amine] |  |  | did not have any inhibitory effects | 19.9 µM and ~20 µM | 2.3
